Test results taken from patent US6727245B2, “Heterobicyclic derivatives” (Fujisawa Pharmaceutical Co., Ltd., priority 1994, dated 2004).

Experiments:
[1] = molecular target: U937 Phosphodiesterase IV (PDE IV); assay: Inhibition of U937 Phosphodiesterase IV (PDE IV); format: biochemical; conditions: PDE IV enzyme preparation from U937 cell homogenate; [3H]-cAMP substrate; CI-930 (PDE III inhibitor) final 10 μM; 30° C.
Method: (a) Inhibition of U937 Phosphodiesterase IV (PDE IV)
Harvested U937 was freezed in −80° C. and throwed to destroy the cell body. The pellet of destroyed cell was washed by Phosphate-buffered saline (PBS).
The washed cell pellet was homogenized with Dounce homogenizer (20 strokes) in homogenizing buffer (0.5% deoxycholate [DOC], 5 mM 2-mercaptoethanol, 1 μM leupeptin, 100 μM PMSF, 20 μM p-tosyl-L-lysine-chloromethyl ketone [TLCK] in PBS). The homogenate was centrifuged at 100,000 g×90 minutes (4° C.) and the supernatant containing PDE IV activity was dialyzed against dialysis buffer, which was the same component as homogenizing buffer without DOC. The dialyzed supernatant of homogenate was stored in freezer (−80° C.) as PDE IV enzyme preparation.
Enzyme preparation was diluted in assay buffer (10 mM Tris-HCl, 5 mM MgCl, 1 mM 2-Mercaptoethanol [pH 8.0]). In advance the rate of dilution was choosen every new lot of homogenizing preparation. […]
The reaction tube was preincubated in a water bath (30° C.) for 5 minutes, then 100 μl [^3H]-cAMP (37.0 MBq/ml [^3H]-cAMP: 4 μM cold cAMP=1:800) was added thereto. […] The mixture was centrifuged at 1000 rpm×5 minutes, and then 500 μl of the supernatant was added to 10 ml scintillation fluid in appropriate vial, vortexed, and counted for [^3H].
The inhibitory activity was calculated according to the following equation: [formula]

[2] = system: TNF-α Production in Human Mononuclear Cells; assay: Inhibition on TNF-α Production in Human Mononuclear Cells; format: cell-based; conditions: MNC from healthy volunteers, 1 μg/ml LPS (E. coli), 37° C. for 16 hours, TNF-α in supernatant by ELISA
Method: (b) Inhibition on TNF-α Production in Human Mononuclear Cells
Blood was drawn from healthy volunteers with heparin. The mononuclear cell (MNC) fraction was obtained by gradient centrifugation (1800 rpm, 15 minutes), diluted with the same volume of RPMI-1640 culture medium, over Ficoll-Paque (Pharmacia LKB Biotechnology). MNC were washed twice with RPMI-1640. Then, MNC were resuspended in RPMI-1640 culture medium supplemented with 2 mM L-glutamine and 1% fetal bovine serum. MNC were incubated at 37° C. for 16 hours in 96-well micro culture plate at a concentration of […] with or without 1 μg/ml lipopolysaccharide (LPS) (from E. coli) and various amounts of test compound. At the end of incubation, the supernatant was obtained and its TNF-α active was measured by enzyme-linked immunosorbent assay (ELISA). ELISA was performed with TNF-α ELISA kit (Otsuka Pharmaceutical Co., Ltd.).

IC50 [1]: 31 nM
SMILES: O=C(Nc1cccc(-n2c(=O)c(Cc3ccccc3)nc3cccnc32)c1)Nc1cccc2ccccc12 [Test compound (a), 4-[3-[3-(1-Naphthyl)ureido]phenyl]-2-benzyl-3-oxo-3,4-dihydropyrido[2,3-b]pyrazine]
IC50 [2]: 56 nM
